Molecular target: human P2X3 receptor (Homo sapiens (Human), UniProt P56373)
Assay: Evaluation of human P2X3 receptor inhibitory activity (Test Example 1)
Format: cell-based
Conditions: C6BU-1 cell transfected with human P2X3 receptor gene, FLIPR 384
Method in brief: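 FLIPR calcium read-out: signal taken as peak fluorescence after ATP addition divided by starting fluorescence, and IC50 calculated from it. Compound added 5 min before 150 nM ATP solution (pre-dispense stock) to Fluo-3-AM-loaded C6BU-1 cells stably transfected with human P2X3; HEPES buffer pH 7.5 with probenecid.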

Chain of human P2X3 receptor (P56373 whole entry): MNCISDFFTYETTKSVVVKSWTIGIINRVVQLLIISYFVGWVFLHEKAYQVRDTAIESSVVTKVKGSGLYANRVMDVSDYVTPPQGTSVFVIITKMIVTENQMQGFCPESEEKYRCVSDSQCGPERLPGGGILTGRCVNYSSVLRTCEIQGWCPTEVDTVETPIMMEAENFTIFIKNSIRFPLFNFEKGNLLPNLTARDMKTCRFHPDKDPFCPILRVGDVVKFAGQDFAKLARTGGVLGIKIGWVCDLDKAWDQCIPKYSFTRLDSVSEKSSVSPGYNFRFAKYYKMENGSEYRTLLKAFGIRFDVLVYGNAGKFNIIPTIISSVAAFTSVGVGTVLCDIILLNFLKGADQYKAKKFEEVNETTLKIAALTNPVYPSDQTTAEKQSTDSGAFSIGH

Point of comparison: `COC(=O)[C@@H](C)Cn1c(=O)[nH]/c(=N\c2ccc(Oc3cccnn3)cc2)n(Cc2ccc(Cl)cc2)c1=O` [Compound R-119], IC50 5 nM. Against it:
- COC(=O)[C@@H](C)Cn1c(=O)[nH]/c(=N\c2ccc(Oc3cnccn3)c(C)c2)n(Cc2ccc(Cl)cc2)c1=O [Compound R-111] — the same, 5 nM
- COC(=O)[C@@H](C)Cn1c(=O)[nH]/c(=N\c2ccc(Oc3noc(C)n3)cc2)n(Cc2ccc(Cl)cc2)c1=O [Compound R-112] — 3.4-fold higher, 17 nM
- COC(=O)C(C)(C)Cn1c(=O)[nH]/c(=N\c2ccc(Oc3noc(C)n3)cc2)n(Cc2ccc(Cl)cc2)c1=O [Compound R-113] — 2.6-fold higher, 13 nM
- Cc1nc(Oc2ccc(/N=c3\[nH]c(=O)n(C[C@H](C)C(=O)O)c(=O)n3Cc3ccc(Cl)cc3)cc2)no1 [Compound R-114] — 7.8-fold higher, 39 nM
- Cc1nc(Oc2ccc(/N=c3\[nH]c(=O)n(CC(C)(C)C(=O)O)c(=O)n3Cc3ccc(Cl)cc3)cc2)no1 [Compound R-115] — 13-fold higher, 65 nM
- Cc1cc(/N=c2\[nH]c(=O)n(C[C@H](C)C(=O)O)c(=O)n2Cc2ccc(Cl)cc2)ccc1Oc1cncc(F)c1 [Compound R-116] — the same, 5 nM
- C[C@@H](Cn1c(=O)[nH]/c(=N\c2ccc(Oc3cncc(F)c3)c(F)c2)n(Cc2ccc(Cl)cc2)c1=O)C(=O)O [Compound R-117] — within 1.5-fold, 6 nM
- Cc1cc(/N=c2\[nH]c(=O)n(CC(C)(C)C(=O)O)c(=O)n2Cc2ccc(Cl)cc2)ccc1Oc1cncc(F)c1 [Compound R-118] — the same, 5 nM
- C[C@@H](Cn1c(=O)[nH]/c(=N\c2ccc(Oc3cccnn3)cc2)n(Cc2ccc(Cl)cc2)c1=O)C(=O)O [Compound R-120] — 1.6-fold higher, 8 nM
- CC(C)(Cn1c(=O)[nH]/c(=N\c2ccc(Oc3cncc(F)c3)c(F)c2)n(Cc2ccc(Cl)cc2)c1=O)C(=O)O [Compound R-121] — the same, 5 nM
- COC(=O)[C@H](C)[C@H](C)n1c(=O)[nH]/c(=N\c2ccc(Oc3cnccn3)c(F)c2)n(Cc2ccc(Cl)cc2)c1=O [Compound R-122] — 2.6-fold higher, 13 nM
- C[C@@H](Cn1c(=O)[nH]/c(=N\c2ccc(Oc3ccnc(C#N)c3)cc2)n(Cc2ccc(Cl)cc2)c1=O)C(=O)O [Compound R-123] — the same, 5 nM
- C[C@@H](Cn1c(=O)[nH]/c(=N\c2ccc(Oc3cc(Cl)ncn3)cc2)n(Cc2ccc(Cl)cc2)c1=O)C(=O)O [Compound R-124] — 1.8-fold higher, 9 nM
- C[C@@H](C(=O)O)[C@H](C)n1c(=O)[nH]/c(=N\c2ccc(Oc3cnccn3)c(F)c2)n(Cc2ccc(Cl)cc2)c1=O [Compound R-125] — within 1.5-fold, 7 nM
- CC(C)(Cn1c(=O)[nH]/c(=N\c2ccc(Oc3cc(O)nc(F)c3)cc2)n(Cc2ccc(Cl)cc2)c1=O)C(=O)O [Compound R-126] — 2-fold higher, 10 nM
- CCc1[nH]c2ccc(/N=c3\[nH]c(=O)n([C@@H](C)[C@@H](C)C(=O)OC)c(=O)n3Cc3ccc(Cl)cc3)cc2c1C [Compound R-127] — 18-fold higher, 90 nM
- CCc1[nH]c2ccc(/N=c3\[nH]c(=O)n([C@@H](C)[C@@H](C)C(=O)O)c(=O)n3Cc3ccc(Cl)cc3)cc2c1C [Compound R-128] — 2.2-fold higher, 11 nM
- COC(=O)C(C)(C)Cn1c(=O)[nH]/c(=N\c2ccc(Oc3cnccn3)c(C)c2)n(Cc2ccc(Cl)cc2)c1=O [Compound R-129] — within 1.5-fold, 7 nM
- Cc1cc(/N=c2\[nH]c(=O)n(C[C@H](C)C(=O)O)c(=O)n2Cc2ccc(Cl)cc2)ccc1Oc1cnccn1 [Compound R-130] — 1.8-fold higher, 9 nM
- Cc1cc(/N=c2\[nH]c(=O)n(CC(C)(C)C(=O)O)c(=O)n2Cc2ccc(Cl)cc2)ccc1Oc1cnccn1 [Compound R-131] — 1.8-fold higher, 9 nM
- COC(=O)[C@@H](C)Cn1c(=O)[nH]/c(=N\c2ccc(Oc3ncc(C)s3)cc2)n(Cc2ccc(Cl)cc2)c1=O [Compound R-132] — 2-fold higher, 10 nM
- Cc1cnc(Oc2ccc(/N=c3\[nH]c(=O)n(C[C@H](C)C(=O)O)c(=O)n3Cc3ccc(Cl)cc3)cc2)s1 [Compound R-133] — within 1.5-fold, 6 nM
- COC(=O)[C@@H](C)Cn1c(=O)[nH]/c(=N\c2ccc(Oc3ncns3)cc2)n(Cc2ccc(Cl)cc2)c1=O [Compound R-134] — the same, 5 nM
- COC(=O)[C@@H](C)Cn1c(=O)[nH]/c(=N\c2ccc(Oc3nc(C)ns3)cc2)n(Cc2ccc(Cl)cc2)c1=O [Compound R-135] — the same, 5 nM

— patent US10065941B2, “Aminotriazine derivative and pharmaceutical composition comprising the same” (Shionogi & Co., Ltd., priority 2013, dated 2018)
